In patent US20120027753A1, “MicroRNAs in Never-Smokers and Related Materials and Methods” (THE OHIO STATE UNIVERSITY, priority 2009, published 2012):

Assays:
Assay type in all cases: cell-based, human
[1] = tested on: H3255 lung adenocarcinoma cells (EGFR mutant L858R); assay: MTS growth inhibition assay, H3255; conditions: 72 h, read-out: IC50 (half maximal inhibitory concentration), cell growth
Excerpt: (§1) Six lung adenocarcinoma cell lines (A549, H23, H441, H1650, H1975 and H3255), one squamous cell line (H157) and one large cell carcinoma cell line (H1299) were used in this study. H3255 was provided by National Cancer Institute and maintained in ACL-4 medium (GIBCO) with 5% fetal bovine serum (GIBCO). A549, H23, H441, H1650, H1975, H157 and H1299 were purchased from American Type Culture Collection (ATCC) and maintained in RPMI 1640 (GIBCO) with 10% fetal bovine serum. hTERT-immortalized normal human bronchial epithelial cells (HBET2) were established.
(§2) Growth inhibition was assessed by MTS assay (Dojindo, Japan) to examine the effect of AG1478 on lung cancer cell lines. Cell suspensions (5,000 cells/well) were seeded into 96-well plates and increasing concentrations of AG1478 (0, 0.4, 2.0, 10 and 50 μM) were added. After incubation for 72 h at 37° C., MTS [3-(4,5-dimethylthiazol-2-yl)-5-(3-carboxymethoxyphenyl)-2-(4-sulfophenyl) 2H-tetrazolium, inner salt] was added to each well and incubated for 2 h at 37° C., and then absorbance was measured using a microplate reader with a test wavelength of 450 nm. The IC50 value was defined as the concentration needed for 50% reduction of the growth by treatment with AG1478. Each experiment was done at least in triplicate, and four times independently. The data were shown as mean±SD.

[2] = tested on: H441 lung adenocarcinoma cells (EGFR wild-type); assay: MTS growth inhibition assay, H441; conditions: 72 h, read-out: IC50 (half maximal inhibitory concentration), cell growth
Excerpt: as §1, §2

[3] = tested on: H1650 lung adenocarcinoma cells (EGFR mutant ΔE746-A750); assay: MTS growth inhibition assay, H1650
Excerpt: as §1, §2

[4] = tested on: A549 lung adenocarcinoma cells (EGFR wild-type); assay: MTS growth inhibition assay, A549
Excerpt: as §1, §2

[5] = tested on: H1975 lung adenocarcinoma cells (EGFR mutant L858R and T790M); assay: MTS growth inhibition assay, H1975
Excerpt: as §1, §2

[6] = tested on: EGFR signaling (phospho-EGFR, phospho-Akt) in H3255 cells; assay: Western blot of p-EGFR and p-Akt after AG1478 treatment, H3255; conditions: H3255, AG1478 at either 2 μM or 10 μM for 2 h, with or without EGF 20 ng/ml
Experimental: (§3) FIGS. 2A-2B: AG1478 represses miR-21 expression. H3255 lung adenocarcinoma cells, characterized by a high expression of miR-21 and EGFR mutation, were serum-starved for 24 h and then grown in either the presence or absence of AG1478 (2 μM or 10 μM) for 2 h with or without following exposure to 20 ng/ml of EGF for 15 min.
FIG. 2A: The effect of AG1478 on phospho-EGFR (p-EGFR) and phospho-Akt (p-Akt) expression. β-actin was a loading control.
(§4) AG1478 was purchased from Calbiochem (San Diego, Calif.). Epidermal growth factor (EGF) was purchased from Promega (Madison, Wis.). To evaluate the effect of AG1478 on the EGFR signaling pathway and miR-21 expression levels, lung cancer cell lines were serum-starved for 24 h, incubated in the presence or absence of AG1478 (2 μM or 10 μM) for 2 h, and then for an additional 15 min in the presence or absence of EGF (20 ng/ml).
Cells were lysed in buffer containing 50 mM Tris-HCl, pH 7.6, 150 mM NaCl, 0.1% sodium dodecyl sulfate, 1% Nonidet P-40, and 0.5% sodium-deoxycholate. […] The supernatant was collected and then 10 μg of protein were separated by gel electrophoresis on 10% gels, transferred to nitrocellulose membranes and detected by immunoblotting using a chemiluminescence system (GE Healthcare Bio-Sciences Corp, Piscataway, N.J.). The images were quantified by measuring signal intensity using NIH ImageJ1.40g (rsb.info.nih.gov/ij/). […]

[7] = tested on: miR-21 expression in H3255 cells; assay: qRT-PCR of miR-21 expression after AG1478/EGF treatment, H3255; conditions: for miR-21 expression levels: AG1478 2 μM or 10 μM
Experimental: as §3
FIG. 2B: MiR-21 expression levels analyzed by qRT-PCR after the AG1478 treatments (2 μM or 10 μM) with or without EGF ligand stimulation. MiR-21 expression levels were expressed as the relative values to untreated cells in the absence of EGF. Data were mean±SD from four independent experiments. *, p<0.05, paired t-test.
(§5) Expression of mature miRs was examined using qRT-PCR analysis using a TaqMan Human MicroRNA Assay kit (Applied Biosystems, Foster City, Calif.). RNU6B was used as an endogenous control (#4373381, Applied Biosystems). Reactions were performed using a PRISM 7700 Sequence Detector System (Applied Biosystems). Gene expression was quantified and values were reported as 2-ΔΔCT. Data were presented as mean±SD from triplicate.
as §4

[8] = tested on: miR-21 expression in H441 cells; assay: qRT-PCR of miR-21 expression after AG1478 treatment, H441; conditions: H441, AG1478 at 10 μM, absence of EGF, p<0.05
Experimental: FIG. 7: AG1478 represses miR-21 expression in H441 lung adenocarcinoma cells. MiR-21 expression levels were analyzed by qRT-PCR after the AG1478 treatments (2 μM or 10 μM) in the absence of EGF and expressed relative to untreated cells. Data were mean±SD from triplicate. *, p<0.05, paired t-test.
as §5, §4

[9] = tested on: miR-21 in H3255 cells; assay: qRT-PCR of miR-21 after anti-miR-21 transfection, H3255; conditions: H3255, 40 nM, 72 h, vs anti-EGFP control
Experimental: (§6) FIG. 3A: Cells were transfected with 40 nM of anti-miR-21 (+) or control oligonucleotide (anti-EGFP) (−) for 72 h and examined by qRT-PCR. The expression levels of miR-21 after transfection of anti-miR-21 were expressed as the relative values to control. Data were mean±SD from three independent experiments. *, p<0.05, paired t-test.
as §5
(§7) 2′-O-methyl oligonucleotides were chemically synthesized at Integrated DNA Technologies (Coralville, Iowa). […] Activities of caspase-3 and caspase-7 were analyzed using ApoONE Homogeneous Caspase 3/7 Assay (Promega) according to the manufacturer's instructions. Samples were measured after 6 h of incubation with the caspase substrate on a fluorescent plate reader using wavelengths of 485 and 535 nm for excitation and emission, respectively. […]

[10] = tested on: miR-21 in H441 cells; assay: qRT-PCR of miR-21 after anti-miR-21 transfection, H441; conditions: H441, 40 nM, 72 h, vs anti-EGFP control
Experimental: as §6, §5, §7

[11] = tested on: H3255 cells (caspase-3 and caspase-7 activities); assay: ApoONE caspase 3/7 apoptosis assay, H3255
Experimental: (§8) FIGS. 3B-3C: Cells (H3255 or H441) were transfected with 40 nM of anti-miR-21 (+) or anti-EGFP (−) for 72 h and then grown in the presence or absence of 0.2 μM of AG1478 for 24 h (H3255) or 10 μM for 72 h (H441). The activities of caspase 3/7 were expressed as the relative values to the activities of cells without anti-miR-21 and AG1478. Data were mean±SD from at least four independent experiments. *, p<0.05, Student t-test.
(§9) 2′-O-methyl oligonucleotides were chemically synthesized at Integrated DNA Technologies (Coralville, Iowa). 2′-O-methyl oligonucleotides had the following sequences: 2′OMe-enhanced green fluorescent protein (EGFP) (anti-EGFP) 5′-AAGGCAAGCUGACCCUGAAGU-3′ [SEQ ID NO:1] and 2′OMe-miR-21 (anti-miR-21) 5′-UCA ACA UCA GUC UGA UAA GCUA-3′ [SEQ ID NO:2]. H441 and H3255 cells were plated in triplicate in 96-well plates. Cells were transfected using LipofectAMINE 2000 reagent (Invitrogen) 24 h after plating. […] Activities of caspase-3 and caspase-7 were analyzed using ApoONE Homogeneous Caspase 3/7 Assay (Promega) according to the manufacturer's instructions. Samples were measured after 6 h of incubation with the caspase substrate on a fluorescent plate reader using wavelengths of 485 and 535 nm for excitation and emission, respectively. […]

[12] = tested on: H441 cells (caspase-3 and caspase-7 activities); assay: ApoONE caspase 3/7 apoptosis assay, H441
Experimental: as §8, §9

[13] = tested on: uncleaved PARP in H3255 cells; assay: Western blot of uncleaved PARP, H3255; conditions: H3255, both anti-miR-21 and AG1478 (2 μM, 72 h)
Experimental: (§10) FIG. 3D: Uncleaved PARP was evaluated by Western blot. Cells were transfected with anti-miR-21 or anti-EGFP as above and then grown in the presence or absence of 2 μM of AG1478 for 72 h. β-actin was a loading control.
(§11) Cells were lysed in buffer containing 50 mM Tris-HCl, pH 7.6, 150 mM NaCl, 0.1% sodium dodecyl sulfate, 1% Nonidet P-40, and 0.5% sodium-deoxycholate. The lysates were kept on ice for 30 min, and then centrifuged at 13000 g for 30 min. The supernatant was collected and then 10 μg of protein were separated by gel electrophoresis on 10% gels, transferred to nitrocellulose membranes and detected by immunoblotting using a chemiluminescence system (GE Healthcare Bio-Sciences Corp, Piscataway, N.J.). The images were quantified by measuring signal intensity using NIH ImageJ1.40g (rsb.info.nih.gov/ij/). The antibodies detecting EGFR, phospho-EGFR (Tyr1173), phospho-Akt (Ser473), PARP and β-actin were purchased from Cell Signaling Technology (Beverley, Mass.).

[14] = tested on: uncleaved PARP in H441 cells; assay: Western blot of uncleaved PARP, H441; conditions: H441, anti-miR-21 in the presence or absence of AG1478 (2 μM, 72 h)
Experimental: as §10, §11

COc1cc2ncnc(Nc3cccc(Cl)c3)c2cc1OC [AG1478]
IC50 [1]: 0.3 µM | IC50 [2]: 10 µM | cell proliferation [3]: inhibited cell proliferation | cell proliferation [4]: inhibited cell proliferation | cell proliferation [5]: inhibited cell proliferation | EGFR signaling (p-EGFR and p-Akt) [6]: effectively inhibited the EGFR signaling | miR-21 expression levels ([7]; H3255, absence of EGF, p<0.01): significantly repressed | miR-21 expression levels ([7]; H3255, with EGF 20 ng/ml, p<0.05): inhibited back to the basal levels | miR-21 expression [8]: significantly repressed miR-21 expression

EGF: Epidermal growth factor (EGF) ligand, purchased from Promega
upregulation of miR-21 expression ([7]; H3255, serum-starved, EGF 20 ng/ml for 15 min, relative to untreated cells): ~2.5 fold

anti-miR-21: 2′-O-methyl antisense oligonucleotide targeting miR-21, 5′-UCA ACA UCA GUC UGA UAA GCUA-3′ [SEQ ID NO:2] (antisense UCAACAUCAGUCUGAUAAGCUA; all 2'-O-methyl, backbone not given here)
miR-21 expression after antisense transfection [9]: repression of miR-21 in these cells was confirmed | miR-21 expression after antisense transfection [10]: repression of miR-21 in these cells was confirmed | apoptosis (caspase 3/7 activities) ([11]; H3255, anti-miR-21 40 nM alone): did not induce apoptosis | apoptosis (caspase 3/7 activities) ([11]; H3255, anti-miR-21 40 nM in combination with AG1478 at 0.2 μM for 24 h): significantly enhanced AG1478-induced apoptotic response | apoptosis (caspase 3/7 activities) ([12]; H441, anti-miR-21 40 nM alone): significant increase in apoptotic response | apoptosis (caspase 3/7 activities) ([12]; H441, anti-miR-21 40 nM in combination with 10 μM AG1478 for 72 h): further enhanced apoptotic response | amounts of uncleaved PARP [13]: markedly decreased | amounts of uncleaved PARP [14]: markedly decreased
